# Test results reported in patent US12637424B2, “Pharmaceutical salt of an arylpyrrole derivative” (SENTINEL ONCOLOGY LIMITED, priority 2020, dated 2026).
# Like-named read-outs stand apart in the source and are kept apart here.
# Columns and labels:
# Format in all cases: cell-based
# [1] = tested on: U-2932; test: Cancer cell line panel proliferation (CellTiter-Glo); settings: U-2932, Blood/Lymphoma, 72 hours
# Protocol: (§1) Screening against diverse cancer cell lines was performed to identify tumour types displaying sensitivity to atropisomers A-1 and A-2. A panel of 48 cancer-derived cell lines was screened in a high-throughput proliferation assay using dilutions of atropisomers A-1/A-2. Cell lines that were screened included those representing cancer of the pancreas, large intestine/colorectum, lung, brain and nerves, and lymphoma and leukaemia cell lines. Cell lines were treated with serial half-log dilutions of compound and assayed 72 hours later for proliferation using CellTiter-Glo Assay (Promega). IC50 values were calculated by fitting the dose-response data using a nonlinear regression model.
# [2] = tested on: DOHH-2; test: as above; settings: DOHH-2, Blood/Lymphoma, 72 hours
# Protocol: as §1
# [3] = tested on: JVM-2; test: as above; settings: JVM-2, Blood/Lymphoma, 72 hours
# Protocol: as §1
# [4] = tested on: LN-229; test: as above; settings: LN-229, Brain&Nerves, 72 hours
# Protocol: as §1
# [5] = tested on: NCI-H1792; test: as above; settings: NCI-H1792, Lung, 72 hours
# Protocol: as §1
# [6] = tested on: ML-2; test: as above; settings: ML-2, Blood/Leukaemia, 72 hours
# Protocol: as §1
# [7] = tested on: JeKo-1; test: as above; settings: JeKo-1, Blood/Lymphoma, 72 hours
# Protocol: as §1
# [8] = tested on: NCI-H1299; test: as above; settings: NCI-H1299, Lung, 72 hours
# Protocol: as §1
# [9] = tested on: Ramos; test: as above; settings: Blood/Lymphoma, 72 hours
# Protocol: as §1
# [10] = tested on: Kasumi-1; test: as above; settings: Kasumi-1, Blood/Leukaemia, 72 hours
# Protocol: as §1
# [11] = tested on: Toledo; test: as above; settings: Blood/Lymphoma, 72 hours
# Protocol: as §1
# [12] = tested on: NCI-H460; test: as above; settings: NCI-H460, Lung, 72 hours
# Protocol: as §1
# [13] = tested on: Capan-1; test: as above; settings: Capan-1, Pancreas, 72 hours
# Protocol: as §1
# [14] = tested on: WSU-DLCL2; test: as above; settings: WSU-DLCL2, Blood/Lymphoma, 72 hours
# Protocol: as §1
# [15] = tested on: U87MG Human Glioblastoma Cancer Cell; test: U87MG cell viability (SRB assay); settings: 72 hours, read-out: IC50 for inhibition of cell growth
# Protocol: The following protocol was used to measure the effects of atropisomers A-1 and A-2 on U87MG cell viability. U87MG cells were grown in their recommended growth media/supplements (ATCC). Cells were seeded at a concentration of 5000 cells per well into 96 well plates overnight at 37° C., 5% CO2. Cells were treated with relevant concentrations of test compound for 72 hours. After 72 h incubation, viability was established using sulforhodamine B (SRB) colorimetric assay. Percentage viability was calculated against the mean of the DMSO treated control samples, and IC50 values for inhibition of cell growth were calculated using GraphPad Prism software by nonlinear regression (4 parameter logistic equation).
# [16] = tested on: U87MG; test: Mitotic index (phospho-histone H3) assay; settings: Homo sapiens, U-87 MG; % mitotic cells (pH3-positive), 24 hours
# Text: (§2) Inhibiting the ability of PLK1 and PLK4 to bind to their partners through their PBDs is known to cause cells to arrest in mitosis. Experimentally, this can be measured by assessing the number of cells which are in mitosis at a certain time after treatment with a test compound by immunofluorescent detection of phosphorylated Histone H3 (pH3), a mark which is only present in mitotic cells. PLK1/4-PBD inhibitors are expected to cause a dose-dependent increase in pH3-positive cells, which is reported as Mitotic Index (MI)—the percentage of cells which, at a given time, are positive for this mitotic mark. Cells were plated at 10 000/well in 96-well plates and incubated overnight. The following day atropisomer A-2 stocks in DMSO were diluted in medium then added to cells with a maximum final DMSO concentration on cells of 0.2%. Cells were incubated with the compound for 24 hours then fixed in 3.7% formaldeyde. Cells were permeabilised with 0.1% Triton X-100 then incubated with anti-phospho-histone H3 (Ser10) antibody (Abcam ab5176). The cells were washed with PBS then incubated with AlexaFluor 488 labelled goat anti-rabbit IgG (Invitrogen A11034) in the presence of 4 ug/ml Hoechst 33342 (Invitrogen H3570). Cells were washed in PBS then imaged on an Arrayscan VTi HCS instrument (Thermo Fisher) using the Target Activation V4 Bioapplication. […]
# [17] = tested on: HeLa; test: Mitotic index (phospho-histone H3) assay; settings: Homo sapiens, % mitotic cells (pH3-positive), 24 hours
# Text: as §2
# [18] = tested on: HeLa cells engineered to inducibly express oncogenic KRasG12V; test: Wild-type versus KRAS HeLa cell viability (Cell Titre Blue); settings: Homo sapiens, KRAS G12V transgene, 72 hours
# Protocol: (§3) Thus, atropisomer A-2 was tested on HeLa cells engineered to inducibly express wild-type or oncogenic […] transgenes using the FLP-in/T-Rex system (Invitrogen). Cells were plated, and then treated with or without doxycycline to induce transgene expression, and then treated with serially-diluted atropisomer A-2. After 72 hours of incubation, cell viability was assessed using the Cell Titre Blue reagent (Promega) and a BMG Pherastar plate reader. The effect of PBD inhibition on cell viability with either wild-type or oncogenic G12V KRAS was assessed using GraphPad Prism.
# [19] = tested on: HeLa cells engineered to inducibly express wild-type KRAS; test: as above; settings: Homo sapiens, wild-type KRAS transgene, 72 hours, read-out: WT GI50
# Protocol: as §3
smiles,measurement,setting,value
"CN(C)CCNC(=O)c1ccc(-c2ccc(-c3ccc(Cl)cc3)n2-c2ccccc2C(F)(F)F)cc1 (single isomer, unassigned; atropisomer a) [Atropisomer A-1]",IC50,[1],4.47 µM
same,IC50,[2],5.64 µM
same,IC50,[3],4.71 µM
same,IC50,[4],7.37 µM
same,IC50,[5],7.73 µM
same,IC50,[6],4.01 µM
same,IC50,[7],7.94 µM
same,IC50,[8],8.25 µM
same,IC50,[9],3.99 µM
same,IC50,[10],5.13 µM
same,IC50,[11],> 10 µM
same,IC50,[12],8.13 µM
same,IC50,[13],> 10 µM
same,IC50,[14],6.74 µM
same,IC50,[15],4.6 µM
"CN(C)CCNC(=O)c1ccc(-c2ccc(-c3ccc(Cl)cc3)n2-c2ccccc2C(F)(F)F)cc1 (single isomer, unassigned) [Atropisomer A-2]",EC50,[16],0.09 µM
same,EC50,[17],0.03 µM
same,IC50,"[1]; Homo sapiens, U2932",0.28 µM
same,IC50,[2]; Homo sapiens,0.23 µM
same,IC50,[3]; Homo sapiens,0.38 µM
same,IC50,[4]; Homo sapiens,0.31 µM
same,IC50,[5]; Homo sapiens,0.25 µM
same,IC50,[6]; Homo sapiens,0.18 µM
same,IC50,[7]; Homo sapiens,0.19 µM
same,IC50,[8]; Homo sapiens,0.37 µM
same,IC50,[9]; Homo sapiens,0.34 µM
same,IC50,[10]; Homo sapiens,0.33 µM
same,IC50,[11]; Homo sapiens,0.88 µM
same,IC50,[12]; Homo sapiens,0.3 µM
same,IC50,[13]; Homo sapiens,1.23 µM
same,IC50,"[14]; Homo sapiens, WSUDLCL2",0.36 µM
same,GI50,[18],0.00208 µM
same,GI50,[19],0.00301 µM
same,IC50,"[15]; Homo sapiens, U-87 MG",0.22 µM
